Measured values as given in ChEMBL document CHEMBL2417453, “Anti-inflammatory asterosaponins from the starfish Astropecten monacanthus” (J Nat Prod, 2013).

Columns and labels:
Format in all cases: functional, cell-based
Conditions in all cases: C57BL/6, BMDC
[1] = Antiinflammatory activity in C57BL/6 mouse BMDC cells assessed as inhibition of LPS-induced IL-12 p40 production preincubated for 1 hr prior to LPS-stimulation measured after 18 hrs by ELISA
[2] = Antiinflammatory activity in C57BL/6 mouse BMDC cells assessed as inhibition of LPS-induced IL-6 production preincubated for 1 hr prior to LPS-stimulation measured after 18 hrs by ELISA
[3] = Antiinflammatory activity in C57BL/6 mouse BMDC cells assessed as inhibition of LPS-induced TNFalpha production preincubated for 1 hr prior to LPS-stimulation measured after 18 hrs by ELISA

IC50 [1] [µM] | IC50 [2] [µM] | IC50 [3] [µM] | Compound
> 50 | > 50 | > 50 | CC(C)C[C@H](O)C[C@](C)(O)[C@H]1CC[C@H]2[C@@H]3C[C@H](O[C@@H]4O[C@H](C)[C@@H](O)[C@H](O[C@@H]5OC[C@@H](O[C@@H]6O[C@H](CO)[C@H](O)[C@H](O)[C@H]6O[C@@H]6O[C@H](C)[C@H](O)[C@H](O[C@@H]7O[C@@H](CO)[C@H](O)[C@H]7O)[C@H]6O)[C@H](O)[C@H]5O[C@@H]5O[C@H](C)[C@@H](O)[C@H](O)[C@H]5O)[C@H]4O)[C@H]4C[C@@H](OS(=O)(=O)O)CC[C@]4(C)C3=CC[C@@]21C
> 50 | 30.5 | > 50 | CC(=O)[C@H]1CC[C@H]2[C@@H]3C[C@H](O[C@@H]4O[C@H](C)[C@@H](O)[C@H](O[C@@H]5OC[C@@H](O[C@@H]6O[C@H](CO)[C@H](O)[C@H](O)[C@H]6O[C@@H]6O[C@H](C)[C@H](O)[C@H](O[C@@H]7O[C@@H](CO)[C@H](O)[C@H]7O)[C@H]6O)[C@H](O)[C@H]5O[C@@H]5O[C@H](C)[C@@H](O)[C@H](O)[C@H]5O)[C@H]4O)[C@H]4C[C@@H](OS(=O)(=O)O)CC[C@]4(C)C3=CC[C@]12C
> 50 | 3.17 | > 50 | C/C(=C\C(=O)CC(C)C)[C@H]1CC[C@H]2[C@@H]3C[C@H](O[C@@H]4O[C@H](C)[C@@H](O)[C@H](O[C@@H]5OC[C@@H](O[C@@H]6O[C@H](CO)[C@H](O)[C@H](O)[C@H]6O[C@@H]6O[C@H](C)[C@H](O)[C@H](O[C@@H]7O[C@@H](CO)[C@H](O)[C@H]7O)[C@H]6O)[C@H](O)[C@H]5O[C@@H]5O[C@H](C)[C@@H](O)[C@H](O)[C@H]5O)[C@H]4O)[C@H]4C[C@@H](OS(=O)(=O)O)CC[C@]4(C)C3=CC[C@]12C
> 50 | 4.37 | > 50 | CC(C)=CC(=O)C[C@@H](C)[C@H]1CC[C@H]2[C@@H]3C[C@H](O[C@@H]4O[C@H](CO)[C@@H](O)[C@H](O[C@@H]5O[C@H](C)[C@@H](O[C@@H]6O[C@H](C)[C@H](O)[C@H](O)[C@H]6O[C@@H]6O[C@H](C)[C@H](O)[C@H](O)[C@H]6O)[C@H](O)[C@H]5O[C@@H]5O[C@H](C)[C@@H](O)[C@H](O)[C@H]5O)[C@H]4O)[C@H]4C[C@@H](OS(=O)(=O)O)CC[C@]4(C)C3=CC[C@]12C
> 50 | > 50 | > 50 | CC(C)CC(=O)C[C@](C)(O)[C@H]1CC[C@H]2[C@@H]3C[C@H](O[C@@H]4O[C@H](C)[C@@H](O)[C@H](O[C@@H]5OC[C@@H](O[C@@H]6O[C@H](CO)[C@H](O)[C@H](O)[C@H]6O[C@@H]6O[C@H](C)[C@H](O)[C@H](O[C@@H]7O[C@@H](CO)[C@H](O)[C@H]7O)[C@H]6O)[C@H](O)[C@H]5O[C@@H]5O[C@H](C)[C@@H](O)[C@H](O)[C@H]5O)[C@H]4O)[C@H]4C[C@@H](OS(=O)(=O)O)CC[C@]4(C)C3=CC[C@@]21C [PSILASTEROSIDE]
0.6 | 3.51 | 1.21 | CC(=O)CC(=O)C[C@@](C)(O)[C@H]1CC[C@H]2[C@@H]3C[C@H](O[C@@H]4O[C@H](CO)[C@@H](O)[C@H](O[C@@H]5O[C@H](C)[C@@H](O[C@@H]6O[C@H](C)[C@H](O)[C@H](O)[C@H]6O[C@@H]6O[C@H](C)[C@H](O)[C@H](O)[C@H]6O)[C@H](O)[C@H]5O[C@@H]5O[C@H](C)[C@@H](O)[C@H](O)[C@H]5O)[C@H]4O)[C@H]4C[C@@H](OS(=O)(=O)O)CC[C@]4(C)C3=CC[C@@]21C

Compound | IC50 [1] [µM] | IC50 [2] [µM] | IC50 [3] [µM]
C[S+]([O-])c1ccc(-c2nc(-c3ccc(F)cc3)c(-c3ccncc3)[nH]2)cc1 (stereo unspecified) [SB-203580] | 5 | 3.5 | 7.5
